The text below walks through data of BindingDB's records for doi:10.1016/j.ejmech.2010.09.016 (Democritus University of Thrace, 2010).

One may read the IC50 as the midpoint of a concentration-inhibition curve. A higher IC50 goes with lower potency.

Chain of Seed linoleate 13S-lipoxygenase-1 (Glycine max) (P08170 whole entry, looked up): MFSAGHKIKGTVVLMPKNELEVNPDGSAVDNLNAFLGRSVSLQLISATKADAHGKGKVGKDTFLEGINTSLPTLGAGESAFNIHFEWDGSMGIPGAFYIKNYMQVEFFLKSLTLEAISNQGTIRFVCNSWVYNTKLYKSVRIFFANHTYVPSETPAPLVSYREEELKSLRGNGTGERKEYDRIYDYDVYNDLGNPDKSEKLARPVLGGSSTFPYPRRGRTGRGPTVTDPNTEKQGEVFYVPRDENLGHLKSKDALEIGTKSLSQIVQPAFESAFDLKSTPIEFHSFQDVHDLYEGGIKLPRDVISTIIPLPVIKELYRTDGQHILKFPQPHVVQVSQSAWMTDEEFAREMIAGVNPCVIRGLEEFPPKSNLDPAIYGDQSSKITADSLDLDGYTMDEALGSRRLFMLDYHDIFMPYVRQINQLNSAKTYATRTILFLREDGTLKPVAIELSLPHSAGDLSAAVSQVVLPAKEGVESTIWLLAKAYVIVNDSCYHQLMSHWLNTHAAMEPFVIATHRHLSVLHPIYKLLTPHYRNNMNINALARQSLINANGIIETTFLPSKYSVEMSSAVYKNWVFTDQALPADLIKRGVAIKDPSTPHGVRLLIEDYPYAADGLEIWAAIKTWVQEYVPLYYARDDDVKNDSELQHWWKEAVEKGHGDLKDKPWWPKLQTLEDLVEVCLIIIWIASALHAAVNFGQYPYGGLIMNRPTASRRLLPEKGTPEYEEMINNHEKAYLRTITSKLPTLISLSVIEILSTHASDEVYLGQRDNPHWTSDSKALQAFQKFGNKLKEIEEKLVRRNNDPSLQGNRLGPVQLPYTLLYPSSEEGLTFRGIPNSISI

This experiment concerns the target Seed linoleate 13S-lipoxygenase-1 (Glycine max) (UniProt P08170). The experiment in a line: Inhibition of soybean lipoxygenase at by UV spectrophotometry.
Consider `Clc1ccc(Cc2noc(NC3CCCCC3)n2)cc1` [3-(4-Chlorobenzyl)-N-cyclohexyl-1,2,4-oxadiazol-5-amine], for which it took 25 µM to reach half-maximal inhibition (IC50).

`CC(C)Nc1nc(Cc2ccc(Cl)cc2)no1` [3-(4-Chlorobenzyl)-N-isopropyl-1,2,4-oxadiazol-5-amine] displayed an IC50 of 100 µM. Regarding `CC(C)Nc1nc(C2CCCCC2)no1` [3-Cyclohexyl-N-isopropyl-1,2,4-oxadiazol-5-amine], the half-maximal inhibitory concentration (IC50) amounted to 100 µM. Turning to `Cc1ccc(-c2noc(NCCCN(C)C)n2)cc1` [N1,N1-Dimethyl-N3-(3-p-tolyl-1,2,4-oxadiazol-5-yl)propane-1,3-diamine], the IC50 is 25 µM. Then `COc1ccc(C(=N)NO)cc1` [N'-hydroxy-4-methoxybenzimidamide], with 55 µM. The result for `Cc1ccc(C(=N)NO)cc1` [N'-hydroxy-4-methylbenzimidamide] reads 100 µM. Then `O=[N+]([O-])c1ccc(Cc2noc(NC3CCCCC3)n2)cc1` [N-Cyclohexyl-3-(4-nitrobenzyl)-1,2,4-oxadiazol-5-amine], with 100 µM; and `Cc1ccc(-c2noc(NC3CCCCC3)n2)cc1` [N-Cyclohexyl-3-p-tolyl-1,2,4-oxadiazol-5-amine], with 92 µM. Compound `CC(=O)N(c1nc(-c2ccc([N+](=O)[O-])cc2)no1)C1CCCCC1` [N-Cyclohexyl-N-[3-(4-nitrophenyl)-1,2,4-oxadiazol-5-yl]acetamide] displayed an IC50 of 50 µM. Then `CC(=O)N(c1nc(-c2cccc([N+](=O)[O-])c2)no1)C(C)C` [N-Isopropyl-N-[3-(3-nitrophenyl)-1,2,4-oxadiazol-5-yl]acetamide], with 58.5 µM; and `CC(=O)N(c1nc(Cc2ccc(Cl)cc2)no1)C1CCCCC1` [N-[3-(4-Chlorobenzyl)-1,2,4-oxadiazol-5-yl]-N-cyclohexylacetamide], with 100 µM.
